The values that follow come from patent US9701675B2, “Activation of TRPV4 ion channel by physical stimuli and critical role for TRPV4 in organ-specific inflammation and itch” (Duke University, priority 2012, dated 2017).

Entries after “also recorded” stand apart in the source; their conditions may differ. Where a SMILES comes first, the peptide text is derived from it. [ ]: non-standard residue; d: D form.

Assay [1] has as its target T1, TRPV4 (Mus musculus, UniProt Q9EPK8).
T1 construct: endogenous in cells; host or cells: primary mouse keratinocytes (WT 1° MK)
The assay can be described thus: 4α-PDD-evoked Ca++ signaling in 1° MK (fura-2 ratiometric imaging). The class given is cell-based. As to the method:
(§1) Ca++ imaging of mouse 1° MK in response to chemical activation of TRPV4 was conducted after loading with 2 μM fura2-AM, following a ratiometric Ca2+ imaging protocol with 340/380 nm […] for dual excitation. Ratios of emissions were acquired at 0.5 Hz. ΔR/R0 was determined as the fraction of the increase of a given ratio over baseline ratio, divided by baseline ratio. For stimulation of cells with UVB, where fura-2 was not suitable because of the proximity of stimulation with 340/380 nm and 295 nm, 2 μM fluo4-AM was used instead. Ca++ imaging was carried out at 488 nm excitation, acquisition of emissions at 0.5 Hz, expressed as ΔF/F0. In the custom-built UV optical system, UV LEDs were capped with a ball lens, a transparent optical window in the shape of a hemispherical lens (FIG. 2B). The LED output optical beam focused at 15-20 mm from the lens, with a spot diameter of approximately 1.5-2.0 mm (FIG. 2C). […] The thermal equilibration stage was set for physiological temperature. We confirmed the non-thermal nature of UVB stimulation using the customized 295 nm LED device in a dedicated experiment (FIG. 2D), thus confirming the specific modality of stimulation as UVB.

Assay [2] has as its system primary mouse epidermal keratinocytes (1° MK). The assay can be described thus: UVB-evoked Ca++ signaling in primary mouse keratinocytes (fluo-4 imaging). The class given is cell-based. Particulars: for effect on ET1-augmented, UVB-induced Ca++ transients in 1° MK: UVB and ET1 co-exposure; for effect on UVB-evoked Ca++ signal in 1° MK: concentration not given (IPP: same dose as against camphor). As for the experimental part: Ca++ imaging of 1° MK was conducted following routine procedures. For UVB stimulation, a customized device was built. The system comprised a printed circuit board for electrical interconnects and mechanical support and an ultraviolet light-emitting diode (UV LED).
The operating wavelength was 295 nm (FIG. 2A), with a full-width half-max of 12 nm. The optical power was 500 mW. The focal point was aimed at the plane of the upper surface of the quartz coverslip, which was used to minimize UV absorption along the optical path towards the cells (FIG. 2A-C). The optical intensity at the focal point was estimated to be 150 mW/mm^2.
as §1, with “temperature.” for “temperature. We confirmed the non-thermal nature of UVB stimulation using the customized 295 nm LED device in a dedicated experiment (FIG. 2D), thus confirming the specific modality of stimulation as UVB.”

In assay [3] the test system is ET1. The assay can be described thus: ET1 expression by UVB-exposed 1° MK (immunocytochemistry). Particulars: for ET1 immunoreactivity in UVB-exposed 1° MK: immunolabeling 24 hours after UVB-LED; for ET1 expression in UVB-exposed 1° MK, densitometric quantification: vs. control-treated and UVB-exposed cells, n≧25 cells, p<0.05. The class given is cell-based, mouse. As to the method: 1° MK were exposed to UVB using the UV optical system (295 nm LED). 24 hours later the cells were fixed and fluorescently immunolabeled for ET1. Digital images were captured and subjected to morphometry.
Mouse keratinocytes were cultured on collagen coated quartz coverslips and then stimulated from the bottom using the previously mentioned UV optical system using the 295 nm LED. 24 hours later the cells were fixed in 4% formaldehyde in PBS for 20 minutes, permeabilized with 0.1% Triton X-100 in PBS for 10 minutes, washed, then blocked in 10% normal goat serum in PBS for 45 minutes. Coverslips were incubated overnight with primary antibody mouse anti-ET1 (1:200; Abcam), washed three times in PBS and incubated with secondary antibody for 2 hours at 25° C. Coverslips were washed three times in PBS, once with double-distilled H2O. Digital images were captured using a 40× immersion lens on the BX61 Olympus upright microscope. Morphometric analysis was conducted using ImageJ freeware with tailored regions-of-interest.

Assay [4] concerns ET1. The assay can be described thus: ET1 secretion by non-stimulated 1° MK (ELISA of supernatant). Type of assay: cell-based, mouse. Particulars: two doses of GSK205, dose-dependent. A general note: ELISA stands for enzyme-linked immunosorbent assay.
Assay [5] has as its target T1, TRPV4. The assay is described as follows: GSK101-evoked Ca++ transient in 1° MK (fura-2). Type of assay: cell-based. As for the experimental part: as §1
The target in a further assay is T2, TRPV3 (Mus musculus, UniProt Q8K424).
T2 construct: endogenous in cells; host or cells: primary mouse keratinocytes (1° MK)
T2 sequence (Q8K424 1-791): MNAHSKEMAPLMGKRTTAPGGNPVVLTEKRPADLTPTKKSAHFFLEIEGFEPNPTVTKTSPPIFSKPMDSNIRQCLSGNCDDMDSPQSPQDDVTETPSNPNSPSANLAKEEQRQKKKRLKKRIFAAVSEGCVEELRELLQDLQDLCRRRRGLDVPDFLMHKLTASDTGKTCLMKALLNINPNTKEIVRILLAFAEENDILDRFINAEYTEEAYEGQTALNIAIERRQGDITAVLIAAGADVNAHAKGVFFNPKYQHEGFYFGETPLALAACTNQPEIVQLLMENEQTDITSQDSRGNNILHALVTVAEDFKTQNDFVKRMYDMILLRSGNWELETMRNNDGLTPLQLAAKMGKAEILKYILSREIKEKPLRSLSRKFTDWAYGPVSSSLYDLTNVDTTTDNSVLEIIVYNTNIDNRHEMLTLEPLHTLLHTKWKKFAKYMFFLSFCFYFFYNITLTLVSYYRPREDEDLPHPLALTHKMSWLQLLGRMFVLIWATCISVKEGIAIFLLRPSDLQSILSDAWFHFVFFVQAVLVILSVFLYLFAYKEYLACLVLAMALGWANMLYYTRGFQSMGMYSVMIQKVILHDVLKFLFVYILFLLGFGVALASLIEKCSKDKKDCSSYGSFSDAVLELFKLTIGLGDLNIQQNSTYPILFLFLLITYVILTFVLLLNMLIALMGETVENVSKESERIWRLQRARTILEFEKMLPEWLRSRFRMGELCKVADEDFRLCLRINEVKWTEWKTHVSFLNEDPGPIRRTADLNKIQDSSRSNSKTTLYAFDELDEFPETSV
The assay is described as follows: TRPV3 activation experiment: camphor-evoked Ca++ transient in keratinocytes. Type of assay: cell-based.

Another assay relates to mice. The assay is described as follows: Nocifensive behavior in response to ET1 footpad injection (von Frey). Type of assay: in vivo, mouse. As to the method:
ET1 injections: After determining base-line withdrawal thresholds, each animal received an intraplantar injection of 10 μL 100 nM ET-1 plus contralateral vehicle. Thresholds were again evaluated 1 hour after injection.
Hindpaw mechanical withdrawal thresholds were determined by the automated von Frey hair method, using a 0.5 mm diameter stainless steel filament, part of an automated plantar touch stimulator (Ugo Basile, Modena, Italy). Relevant detail included pre-test acclimatization in a quiet room for 30 min, conducting the test at the same time of day and blinded observers. The stimulus was delivered to the hindpaw, automatically discontinued upon withdrawal, and its intensity recorded automatically. 6-8 trials per animal were conducted, with equal exposure of both hindpaws, leading to an average withdrawal threshold. Results are reported as Δ-threshold, which was calculated by subtracting post-treatment from pre-treatment measurements, expressed as % or relative to 1.0.

T1 sequence (Q9EPK8 whole entry): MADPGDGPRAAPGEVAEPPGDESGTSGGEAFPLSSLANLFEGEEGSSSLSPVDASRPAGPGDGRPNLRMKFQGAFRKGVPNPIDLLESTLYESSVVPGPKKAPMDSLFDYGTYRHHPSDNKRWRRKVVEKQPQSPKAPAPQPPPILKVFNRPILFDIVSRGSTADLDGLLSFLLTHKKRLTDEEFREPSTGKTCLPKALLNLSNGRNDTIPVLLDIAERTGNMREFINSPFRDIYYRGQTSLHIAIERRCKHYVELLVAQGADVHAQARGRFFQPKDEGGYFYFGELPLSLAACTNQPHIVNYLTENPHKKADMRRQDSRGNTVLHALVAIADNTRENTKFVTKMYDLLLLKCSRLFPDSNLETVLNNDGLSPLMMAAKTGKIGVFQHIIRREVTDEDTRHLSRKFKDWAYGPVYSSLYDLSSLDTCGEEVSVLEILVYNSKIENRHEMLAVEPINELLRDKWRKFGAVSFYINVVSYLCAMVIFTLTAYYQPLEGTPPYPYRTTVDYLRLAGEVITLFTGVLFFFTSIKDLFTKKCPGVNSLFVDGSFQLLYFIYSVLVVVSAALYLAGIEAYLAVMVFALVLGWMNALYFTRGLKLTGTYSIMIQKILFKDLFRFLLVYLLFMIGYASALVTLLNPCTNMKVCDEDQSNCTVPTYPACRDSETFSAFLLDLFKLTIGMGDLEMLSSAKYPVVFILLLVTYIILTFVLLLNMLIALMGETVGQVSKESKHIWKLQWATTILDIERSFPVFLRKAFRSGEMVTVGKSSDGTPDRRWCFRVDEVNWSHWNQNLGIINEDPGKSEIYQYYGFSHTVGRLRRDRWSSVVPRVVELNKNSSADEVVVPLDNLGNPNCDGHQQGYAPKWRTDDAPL

As for `CCCCCCCCCC(=O)O[C@@H]1[C@@H](C)[C@@]2(O)[C@@H](C=C(CO)C[C@@]3(O)C(=O)C(C)=C[C@@H]23)[C@@H]2C(C)(C)[C@]12OC(=O)CCCCCCCCC` [4α-PDD, 4α-phorbol 12,13 didecanoate], the “Ca++ transients evoked in 1° MK” value on TRPV4 [1] (4α-PDD) is reported as “Ca++ transients”.
For the compound `CC(C)C[C@@H]1NC(=O)[C@@H](C(C)C)NC(=O)[C@@H]2CCCN2C(=O)[C@@H](CC(=O)O)NC(=O)[C@@H](Cc2c[nH]c3ccccc23)NC1=O` [BQ123] (cyclo(L[dW][dD]P[dV])), the “effect on ET1-augmented, UVB-induced Ca++ transients in 1° MK” value in assay [2] is listed as “attenuated”.
Still for that read-out and setting: under `CCCC[C@@H](NC(=O)[C@@H](Cc1cn(C(=O)OC)c2ccccc12)NC(=O)[C@H](CC(C)(C)C)NC(=O)N1[C@H](C)CCC[C@@H]1C)C(=O)O` [BQ788] stands “attenuated”.
As for `O=C(O)C(Cc1ccc2c(c1)oc1ccccc12)NCP(=O)(O)O` (stereo not shown) [CGS35066], in the assay on ET1 [3], the “ET1 immunoreactivity in UVB-exposed 1° MK” value (shortened to “ET1 immunoreactivity”) is “significant down-regulation” and the “ET1 expression in UVB-exposed 1° MK, densitometric quantification” value (“ET1 expression in UVB-exposed 1° MK” below) is recorded as “significant down-regulation”. The “effect on UVB-evoked Ca++ signal in 1° MK” value in assay [2] is “significantly diminished; also recorded: significant attenuation”. Moreover, the “ET1 secretion by non-stimulated 1° MK” value in the assay on ET1 [4] was “down-regulation”.
Take `CC(C)C[C@H](NC(=O)c1cc2ccccc2s1)C(=O)N1CCN(C(=O)[C@H](CO)NS(=O)(=O)c2ccc(Cl)cc2Cl)CC1` [GSK101]: the “Ca++ transient evoked in 1° MK” value at TRPV4 [5] (5 nM GSK101, WT 1° MK) is listed as “directly stimulate TRPV4; also recorded: Ca++ transient”.
For `C=C(C)CCO[P@@](=O)(O)OP(=O)(O)O` [IPP, isopentenyl pyrophosphate], the “effect on UVB-evoked Ca++ signal in 1° MK” value in assay [2] is “no effect; also recorded: not inhibited”.
Take `CC(C)NCCN(C(C)C)S(=O)(=O)c1ccc(Cl)cc1Cl` [RN1734]: in the assay with ET1 [3], the “ET1 immunoreactivity” value is recorded as “diminished; also recorded: significant down-regulation” and the “ET1 expression in UVB-exposed 1° MK” value is reported as “significant down-regulation”. Also, the “ET1 secretion by non-stimulated 1° MK” value in the assay on ET1 [4] was “significant down-regulation”.
On to `COc1ccc2c(c1)CC[C@@H]1[C@@H]2CC[C@]2(C)[C@@H](NCCCCCCN3C(=O)C=CC3=O)CC[C@@H]12` [U73122], for which, in the assay on ET1 [3], the “ET1 immunoreactivity” value is “dampened; also recorded: significant down-regulation” and the “ET1 expression in UVB-exposed 1° MK” value is “significant down-regulation”. In addition, the “effect on UVB-evoked Ca++ signal in 1° MK” value in assay [2] was “virtually eliminated; also recorded: strongly reduced”. Also, in the assay on ET1 [4], the “ET1 secretion by non-stimulated 1° MK” value is reported as “down-regulation”.
Take `CC12CCC(CC1=O)C2(C)C` (stereo not shown) [camphor, Camphor]: at TRPV3, the “induction of a Ca++ transient” value is on record as “Induction of a Ca++ transient”.
For the compound endothelin-1 [ET1], the “effect of ET1 co-exposure on UVB-evoked Ca++ transients in 1° MK” value in assay [2] (co-exposure UVB + ET1 peptide) is given as “significant increase; also recorded: augmentation”. In addition, the “mechanical allodynia after ET1 footpad injection, TRPV4-deficient mice” value in the assay on mice (Trpv4−/− and tam-treated iKO mice) is “fail to respond”. Besides, the “mechanical withdrawal thresholds after ET1 footpad injection, control mice” value with mice (WT and oil-treated iKO mice, 10 μL 100 nM ET-1 intraplantar) is “significantly lowered; also recorded: significant levels of mechanical allodynia”. The “effect of ET1 co-application on 4α-PDD-evoked Ca++ response” value in the assay with TRPV4 [1] (co-application with 4α-PDD) is recorded as “significant increase”. Further, the “effect of ET1 on GSK101-evoked Ca++ signaling” value with TRPV4 [5] (5 nM GSK101, co-exposure to ET1) was “augmented; also recorded: increase in signal”.
